Test results reported in patent publication US20060205949A1, “Crystalline forms of a biphenyl compound” (THERAVANCE, INC., priority 2005, published 2006).

System: ACh-induced bronchoconstriction
Test: Duration of bronchoprotection in guinea pig model of acetylcholine-induced bronchoconstriction
Type: in vivo
Details: inhalation, 1.5 hours post-dose, expected
Procedure: Groups of six male guinea pigs (Duncan-Hartley (HsdPoc:DH) Harlan, Madison, Wis.) weighing between 250 and 350 g are individually identified by cage cards. Throughout the study animals are allowed access to food and water ad libitum.
Test compounds are administered via inhalation over 10 minutes in a whole-body exposure dosing chamber (R&S Molds, San Carlos, Calif.). The dosing chambers are arranged so that an aerosol was simultaneously delivered to 6 individual chambers from a central manifold. Guinea pigs are exposed to an aerosol of a test compound or vehicle (WFI). […] This is measured gravimetrically by comparing pre-and post-nebulization weights of the filled nebulizer.
The bronchoprotective effects of test compounds administered via inhalation are evaluated using whole body plethysmography at 1.5, 24, 48 and 72 hours post-dose.
Forty-five minutes prior to the start of the pulmonary evaluation, each guinea pig is anesthetized with an intramuscular injection of ketamine (43.75 mg/kg), xylazine (3.50 mg/kg) and acepromazine (1.05 mg/kg). […] The depth of anesthesia is monitored and adjusted if the animal responds to pinching of its paw or if the respiration rate is greater than 100 breaths/minute. […]
Starting this program initiates the experimental protocol and data collection. […] By integrating this signal over time, a measurement of […] is calculated for each breath. […]

O=C(CCN1CCC(OC(=O)Nc2ccccc2-c2ccccc2)CC1)NCCCCCNCc1ccc(O)cc1 [compound of formula I, biphenyl-2-ylcarbamic acid 1-{2-[5-(4-hydroxybenzylamino)pentylcarbamoyl]ethyl}piperidin-4-yl ester]
PD2(50) for ACh-induced bronchoconstriction: less than 200 μg/mL
